How the values were obtained:
Experiment in all cases: relative viability (nuclei count vs DMSO), 5 days (fraction); higher = more cells survive
[1] = compound: Cc1nc(Nc2ncc(C(=O)Nc3c(C)cccc3Cl)s2)cc(N2CCN(CCO)CC2)n1 [Dasatinib] + Nc1nc2[nH]cc(CCc3ccc(C(=O)N[C@@H](CCC(=O)O)C(=O)O)cc3)c2c(=O)[nH]1 [Pemetrexed] (partner 0.2 µM)
Procedure, shortened: (§1)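 Lung cancer cell lines in 1536-well plates got either a single drug or a fixed anchor-drug dose together with five library-drug doses (not always all listed) in √10 steps, by pin tool, on the day after seeding. Nuclei were counted after 5 days, and relative viability is the treated-to-vehicle ratio of nuclei counts. Values are medians of duplicate plates.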

[2] = compound: C1CC1C(=O)NC2=NNC3=C2C=CC(=C3)C4=CC(=CC=C4)C(=O)NC5CC5 [XMD13-2] + N=C(N)NC(=N)NCCc1ccccc1 [Phenformin] (partner 250 µM)
Procedure, shortened: as §1

[3] = compound: C1CC1C(=O)NC2=NNC3=C2C=CC(=C3)C4=CC(=CC=C4)C(=O)NC5CC5 [XMD13-2] + CC1(C)CCC(c2ccc(Cl)cc2)=C(CN2CCN(c3ccc(C(=O)NS(=O)(=O)c4ccc(N[C@H](CCN5CCOCC5)CSc5ccccc5)c(S(=O)(=O)C(F)(F)F)c4)cc3)CC2)C1 [Navitoclax] (partner 0.5 µM)
Procedure, shortened: as §1

[4] = compound: Cc1ccc(C(=O)Nc2cccc(C(F)(F)F)c2)cc1Nc1cncc(C(N)=O)c1 [ALW-II-49-7] + N=C(N)NC(=N)NCCc1ccccc1 [Phenformin] (partner 250 µM)
Procedure, shortened: as §1

Cell Line | relative viability ([1]; first compound 0.005 µM) | relative viability ([1]; first compound 0.01581 µM) | relative viability ([1]; first compound 0.05 µM) | relative viability ([1]; first compound 0.1581 µM) | relative viability ([1]; first compound 0.5 µM) | relative viability ([2]; first compound 0.05 µM) | relative viability ([2]; first compound 0.1581 µM) | relative viability ([2]; first compound 0.5 µM) | relative viability ([2]; first compound 1.581 µM) | relative viability ([2]; first compound 5 µM) | relative viability ([3]; first compound 0.05 µM) | relative viability ([3]; first compound 0.1581 µM) | relative viability ([3]; first compound 0.5 µM) | relative viability ([3]; first compound 1.581 µM) | relative viability ([3]; first compound 5 µM) | relative viability ([4]; first compound 0.08 µM) | relative viability ([4]; first compound 0.253 µM) | relative viability ([4]; first compound 0.8 µM) | relative viability ([4]; first compound 2.53 µM) | relative viability ([4]; first compound 8 µM)
NCI-H1666 | 0.871 | 0.848 | 0.88 | 0.73 | 0.633 | 0.544 | 0.6 | 0.595 | 0.546 | 0.593 | 0.886 | 1.03 | 0.881 | 0.905 | 0.92 | 0.565 | 0.568 | 0.58 | 0.703 | 0.653
NCI-H1734 | 0.377 | 0.416 | 0.387 | 0.376 | 0.341 | 0.463 | 0.354 | 0.391 | 0.386 | 0.363 | 1 | 0.883 | 0.881 | 0.8 | 0.741 | 0.345 | 0.359 | 0.385 | 0.381 | 0.335
NCI-H1755 | 0.465 | 0.357 | 0.413 | 0.346 | 0.235 | 0.643 | 0.666 | 0.596 | 0.642 | 0.677 | 1.03 | 0.985 | 1.07 | 1.01 | 0.986 | 0.584 | 0.627 | 0.612 | 0.55 | 0.405
NCI-H1792 | 0.709 | 0.672 | 0.605 | 0.267 | 0.067 | 0.29 | 0.306 | 0.259 | 0.324 | 0.352 | 0.746 | 0.591 | 0.715 | 0.491 | 0.886 | – | – | 0.228 | 0.147 | 0.258
NCI-H1793 | 0.609 | 0.503 | 0.556 | 0.424 | 0.488 | 0.436 | – | 0.409 | 0.393 | 0.36 | 0.48 | 0.394 | 0.485 | 0.426 | 0.509 | 0.41 | 0.35 | 0.258 | 0.302 | 0.297
NCI-H1915 | 0.489 | 0.455 | 0.449 | 0.337 | 0.159 | 0.381 | 0.362 | 0.367 | 0.371 | 0.379 | 0.801 | 0.781 | 0.806 | 0.835 | 0.853 | 0.333 | 0.32 | 0.364 | 0.353 | 0.342
NCI-H1944 | 0.573 | 0.583 | 0.49 | 0.234 | 0.158 | 0.219 | 0.224 | 0.225 | 0.23 | 0.203 | 1.08 | 1.05 | 1.08 | 1.11 | 1.17 | 0.193 | 0.231 | 0.18 | 0.176 | 0.138
NCI-H1975 | 0.284 | 0.286 | 0.297 | 0.239 | 0.201 | 0.436 | 0.395 | 0.407 | 0.42 | 0.401 | 1.17 | 1.28 | 1.01 | 1.02 | 1.18 | 0.393 | 0.461 | 0.39 | 0.415 | 0.412
NCI-H1993 | 0.591 | 0.498 | 0.616 | 0.395 | 0.385 | 0.456 | 0.493 | 0.55 | 0.553 | 0.566 | 0.911 | 0.834 | 0.884 | 0.845 | 0.673 | 0.535 | 0.546 | 0.542 | 0.544 | 0.502
NCI-H2009 | 1.17 | 1.09 | 1.31 | 0.946 | 0.243 | 0.473 | 0.486 | 0.54 | 0.454 | 0.517 | 1.22 | 1.15 | 1.22 | 1.14 | 1.21 | 0.463 | 0.49 | 0.444 | 0.334 | 0.283
NCI-H2023 | 0.204 | 0.238 | 0.195 | 0.175 | 0.191 | 0.561 | 0.434 | 0.399 | 0.428 | 0.426 | 1.01 | 1.03 | 0.893 | 0.968 | 1 | 0.384 | 0.467 | 0.403 | 0.395 | 0.319
NCI-H2085 | 0.743 | 0.756 | 0.491 | 0.23 | 0.205 | 0.825 | 0.715 | 0.759 | 0.661 | 0.802 | 1.25 | 1.14 | 1.16 | 1.18 | 1.1 | 0.754 | 0.639 | 0.677 | 0.889 | 0.693
NCI-H2087 | 0.719 | 0.617 | 0.67 | 0.649 | 0.471 | 0.479 | 0.487 | 0.515 | 0.498 | 0.362 | 1.01 | 1.13 | 1.02 | 0.968 | 0.959 | 0.526 | 0.459 | 0.488 | 0.467 | 0.445
NCI-H2126 | 0.736 | 0.608 | 0.636 | 0.499 | 0.344 | 0.531 | 0.474 | 0.522 | 0.522 | 0.553 | 0.909 | 0.867 | 0.831 | 0.813 | 0.845 | 0.507 | 0.549 | 0.505 | 0.515 | 0.485
NCI-H2170 | 0.255 | 0.257 | 0.243 | 0.221 | 0.206 | 0.482 | 0.433 | 0.424 | 0.399 | 0.398 | 0.761 | 0.577 | 0.577 | 0.569 | 0.475 | 0.411 | 0.435 | 0.432 | 0.387 | 0.346
NCI-H2228 | 0.323 | 0.325 | 0.319 | 0.259 | 0.128 | 0.346 | 0.37 | 0.295 | 0.313 | 0.362 | 1.15 | 0.949 | 0.643 | 0.668 | 0.841 | 0.286 | 0.215 | 0.328 | 0.251 | 0.334

Source: the supplement of paper PMC10307832
